Experimental data taken from publication PMC7408547, “Bivalent Inhibitor with Selectivity for Trimeric MMP-9 Amplifies Neutrophil Chemotaxis and Enables Functional Studies on MMP-9 Proteoforms” (Cells, 2020).

Columns and labels:
[1] = target: T1, recombinant human MMP-9 mixture (± 70% monomers and ± 30% trimers) (Homo sapiens, UniProt P14780); assay: Fluorogenic peptide (OmniMMP) degradation assay, recombinant MMP-9 mixture; type: biochemical; details: recombinant human MMP-9 (Sf9) mix
T1 construct: made in house; host or cells: Sf9 insect cells
T1 sequence (P14780 107-707 limits assumed): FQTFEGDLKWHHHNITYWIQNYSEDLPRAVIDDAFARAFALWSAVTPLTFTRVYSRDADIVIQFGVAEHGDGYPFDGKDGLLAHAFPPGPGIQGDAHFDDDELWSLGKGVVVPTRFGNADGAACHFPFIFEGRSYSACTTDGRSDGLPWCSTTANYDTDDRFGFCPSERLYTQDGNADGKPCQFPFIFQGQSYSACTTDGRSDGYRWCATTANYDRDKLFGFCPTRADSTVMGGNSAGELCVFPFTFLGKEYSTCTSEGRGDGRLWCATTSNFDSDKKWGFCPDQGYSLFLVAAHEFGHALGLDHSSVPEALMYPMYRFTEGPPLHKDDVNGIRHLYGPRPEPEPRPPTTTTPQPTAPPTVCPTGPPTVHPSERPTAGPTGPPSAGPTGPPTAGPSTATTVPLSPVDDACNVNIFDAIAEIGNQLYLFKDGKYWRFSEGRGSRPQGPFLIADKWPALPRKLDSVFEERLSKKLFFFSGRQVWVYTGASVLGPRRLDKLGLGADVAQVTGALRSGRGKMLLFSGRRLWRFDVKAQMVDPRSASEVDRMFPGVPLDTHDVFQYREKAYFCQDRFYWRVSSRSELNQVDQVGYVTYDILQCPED
Procedure: Compounds 5 and 7 were synthesized as previously reported. Full-length human proMMP-9 was produced by recombinant expression in Sf9 insect cells and purified by gelatin-Sepharose chromatography as previously described. Stable full-length proMMP-9 monomers and trimers were separated by glycerol gradient ultracentrifugation as previously described. ProMMP-9 mixture and the separated monomers and trimers were activated by incubation with the catalytic domain of MMP-3 (cat. No. 444217, Merck Millipore, Darmstadt, Germany) as previously described. Activation of proMMP-9 was confirmed by a band shift of ±10 kDa, corresponding to the removal of the auto-inhibitory propeptide domain and by detection of gelatinolytic activity with a previously described gelatin degradation assay. MMP-9 monomers and trimers purified from human neutrophils were purchased (Cat. No. 444,231 and 444232, Sigma-Aldrich, St. Louis, MO, USA). Examples of sample purities and activations can be found in Supplementary Figure S1. Recombinant human proMMP-2 (CHO cell-derived), proMMP-3 (NS0 cell-derived), proMMP-7 (NS0 cell-derived) and proMMP-8 (NS0 cell-derived) were purchased from R & D systems (Minneapolis, MN, USA), dissolved in assay buffer (150 mM NaCl, 5 mM CaCl2, 0.01% Tween-20, 50 mM Tris, pH 7.4) to a concentration of 100 µg/mL and activated by incubation with 1 mM p-aminophenylmercuric acetate for, respectively, 1h, 6h, 2h and 1h. Activation of MMPs was confirmed by a band shift of approximately 10 kDa, corresponding to the removal of the propeptide domain. MMP-14/MT1-MMP (NS0 cell-derived) was also purchased from R & D systems (Minneapolis, MN, USA) and activated by incubation with recombinant human furin (cat. No. 1503-SE-010, R & D systems, Minneapolis, MO, USA) in activation buffer (50 mM Tris, 1 mM CaCl2, 0.5% Brij-35, pH 9) for 1.5 h and activity was tested in assay buffer (50 mM Tris, 3 mM CaCl2, 1 µM ZnCl2, pH 8.5). Active human neutrophil elastase (NE) was purchased from Abcam (Cambridge, UK) and for activity assays of NE the assay buffer was replaced by 200 mM Tris, pH 8.8. ADAM17/TACE (Sf 21 (baculovirus)-derived, R & D systems, Minneapolis, MO, USA) was diluted and evaluated in 25 mM Tris, 2.5 μM ZnCl2, 0.005% Brij-35, pH 9.0. All stocks of the compounds were evaluated for the presence of endotoxin using the EndoZyme II assay (Hyglos bioMérieux, Bernried am Starnberger See, Germany). Endotoxin levels in all concentrated stocks (2.5 mg/mL) were below the accepted limit of 0.5 EU/mL.
To determine the inhibition of gelatinolytic activity, we used a previously optimized gelatin degradation assay. […] […] […] BML-P126-0001, Enzo Life Sciences, Farmingdale, NY, USA) was used at a final concentration of 2.5 µg/mL. For ADAM17 the fluorogenic peptide Mca-PLAQAV-Dpa-RSSSR-NH2 (ES003, R & D systems, Minneapolis, MO, USA) and for neutrophil elastase the fluorogenic substrate MeOSuc-AAPV-AMC (cat. no. 324740, Merck Millipore, Darmstadt, Germany) were used. Proteolytic activity was determined by linear regression of the fluorescence curve and the percentage inhibition was calculated through comparison with the positive control (no inhibitors). When testing supernatants from human neutrophils, the assay was performed in the presence of 20 µM neutrophil elastase inhibitor (Elastase Inhibitor IV, Calbiochem, Darmstadt, Germany).

[2] = tested on: U-87 cell line; assay: U-87 cell proliferation (confluence, Incucyte); type: cell-based; details: up to a concentration of 20 µM; 17 h
Procedure: (§1) Toxicity of compounds 5 and 7 was evaluated in vitro on the U-87 cell line. Briefly, U-87 cells were seeded in 96-well plates (cat. No. 92096, TPP Techno Plastic Products, Trasadingen, Switzerland) at 2000 cells/well in DMEM FluoroBrite containing 10% FBS and incubated for 24 h. Cells were washed and further grown in DMEM FluoroBrite with 5% KnockOut™ Serum Replacement (Gibco, Waltham, MA, USA). Compounds 5 and 7 were added to the wells in a 1:2 dilution series starting at 20 µM and ending at 0.16 µM. To evaluate the effect of the compound on cell growth, confluence was determined every hour for 17h using the Incucyte® S3 Live-Cell Analysis System (Sartorius, Göttingen, Germany). Next, cells were stained with the LIVE/DEAD™ Viability/Cytotoxicity Kit for mammalian cells (Invitrogen, Carlsbad, CA, USA; cat. # L3224) and cell viability was evaluated. Data were normalized to the mean confluence of wells containing no inhibitors. To measure the stability of the compounds, fresh blood was collected from heathy mice by cardiac puncture with a heparin-coated needle and syringe and 30UI/mL heparin was added. Next, compound 5, compound 7 or vehicle (DMSO) was added to the blood at a final concentration of 500 µM and incubated at 37 °C. […] Background inhibition was subtracted and results were expressed as percentage inhibition.

[3] = tested on: U-87 cell line; assay: U-87 cell viability (LIVE/DEAD); type: cell-based; details: up to a concentration of 20 µM; 17 h
Procedure: as §1

Compound | IC25 [1] | IC50 [1] | IC75 [1] | effect on proliferation of U-87 cells [2] | cellular toxicity (cell viability of U-87 cells) [3]
CC(C)[C@H](C(=O)O)N(CCNC(=O)c1ccccc1)S(=O)(=O)c1ccc(-c2ccccc2)cc1 [Compound 5] | 228 nM | 726 nM | 2309 nM | did not reduce proliferation | nor did they induce cellular toxicity
CC(C)[C@H](C(=O)O)N(CCNC(=O)c1cccc(C(=O)NCCN([C@@H](C(=O)O)C(C)C)S(=O)(=O)c2ccc(-c3ccccc3)cc2)c1)S(=O)(=O)c1ccc(-c2ccccc2)cc1 [Compound 7] | 1.4 nM | 15 nM | 169 nM | did not reduce proliferation | nor did they induce cellular toxicity
